In patent US20130012483A1, “NOVEL PHARMACEUTICAL COMPOSITION FOR THE TREATMENT OF NEURODEGENERATIVE OR NEUROVASCULAR DISEASES” (priority 2010, published 2013):

System: elderly patients suffering from Alzheimer disease or related disorders (ADRD)
Assay: Before-after clinical study: change in global cognitive performance by Mini-Mental State Examination (MMSE)
Type: in vivo, human
Settings: for Change in MMSE score, mean ± SD (MMSE score after treatment − MMSE score before treatment): between-visits change, oral treatment; for MMSE score (/30 points), mean ± SD after treatment: first follow-up visit, oral vitamin D3 800-3500 IU per day and/or memantine 5-20 mg per day, mean time between visits 0.6±0.4 years
Description: Based on a before-after designed study, we compared the change in global cognitive performance using the Mini-Mental State Examination (MMSE) among elderly patients suffering from Alzheimer disease or related disorders (ADRD).
Three different treatments were administered to these patients: • vitamin D3 alone, • memantine alone, • vitamin D3 in combination with memantine.
All patients suffering from ADRD who were prescribed memantine and/or vitamin D3 with no cerebral vasodilatators and no anticholinesterasics (i.e., donepezil, galantamine or rivastigmine) at the University Memory Center of Angers University Hospital, France and who had at least one follow-up visit, were enrolled in this study.
The MMSE score was used to assess global cognitive performance during the study and was completed at baseline (i.e., before the drug prescription) and during the first follow-up visit. MMSE is a well-established measure of cognitive function in elderly people (see for example Folstein M F, Folstein S E, et al., Mini-Mental State: A practical method for grading the cognitive state of patients for the clinician; Journal of Psychiatric Research 1975; 12: 189-198; or Kalafat L, Hugonot-Diener L, Poitrenaud J., Standardisation et étalonnage français du<<Mini Mental State>>version Greco; Neuropsychol Rev 2003; 13: 209-236). It is a brief, practical screening test for cognitive dysfunction composed of five sections (orientation, registration, attention—calculation, recall, and language). […] Scores range from 30 (unimpaired) to 0 (impaired). The change in MMSE score was used to assess the change in cognitive performance after the introduction of the drug(s).
Subjects were prescribed either vitamin D3 alone, memantine alone, or Vitamin D3 in combination with memantine.
Vitamin D3 was administered orally either daily or monthly. Dosage of vitamin D3 ranges between 800 and 3500 IU per day.
Memantine was administered orally every day at once. Dosage ranges from 5 to 20 mg per day.
Age, gender, the MMSE score at baseline assessment as well as the time between two visits expressed in years (corresponding to the duration of treatment) were used as co-variables.
The subjects' baseline characteristics were summarized using means and standard deviations or frequencies and percentages, as appropriate. First, comparisons between subjects separated into three groups corresponding to the three treatments administered (i.e., vitamin D3 alone, memantine alone and Vitamin D3 in combination with memantine) were performed using the Chi-square test or the Kruskal-Wallis test, as appropriate. To address the problem of multiple comparisons, analyses were completed by a post hoc Bonferonni test.
Second, multiple linear regression analyses (i.e., fully adjusted method) were performed to examine the association between the change in MMSE score (dependent variable) and the use of vitamin D3 in combination with memantine (independent variable), after adjustment for clinical characteristics.
Three models were performed: • first, we examined the between-visits change in MMSE score taking as reference group the subjects using vitamin D3 alone; • second, we performed the same analysis taking as reference group the subjects using memantine alone; and • third, taking as reference group the subjects using vitamin D3 or memantine.

Question: Which “Change in MMSE score, mean ± SD (MMSE score after treatment − MMSE score before treatment)” value does the source give for `CC12CC3CC(C)(C1)CC(N)(C3)C2` [M., 3,5-dimethyltricyclo[3.3.1.1]decylamine] here?
Answer: Its value is −0.0 ± 1.8 points.

Question: What about the “Change in MMSE score, mean ± SD (MMSE score after treatment − MMSE score before treatment)” value (listed as memantine) of the same molecule?
Answer: Its value is 0.0±1.8 points.

Question: What about the “MMSE score (/30 points), mean ± SD after treatment” value of the same molecule?
Answer: Its value is 16.1 ± 5.1 points.

Question: What does the source list for `C=C1CC[C@H](O)C/C1=C/C=C1\CCC[C@]2(C)[C@@H]([C@H](C)CCCC(C)C)CC[C@@H]12` [V. D3, cholecalciferol]?
Answer: points lost in MMSE score on average (between visits, printed as a loss): 0.6±3.1 points; Change in MMSE score, mean ± SD (MMSE score after treatment − MMSE score before treatment): −0.6 ± 3.1 points; MMSE score (/30 points), mean ± SD after treatment: 17.7 ± 6.5 points
